According to PubChem BioAssay (NCI):
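Compound exposure: 48 hours, 5 concentrations, 96-well plates. Here, GI50 denotes the concentration required for 50% inhibition of growth. TGI denotes the concentration required for complete inhibition of growth.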

Tests used:
Assay in all cases: DTP human tumour cell line panel, 48 h
[1] = system: LOX IMVI melanoma
[2] = system: DLD-1 colon
[3] = system: RXF-631 renal
[4] = system: COLO 205 colon
[5] = system: HCT-15 colon
[6] = system: CCRF-CEM leukemia
[7] = system: NCI-H226 lung
[8] = system: SW-620 colon
[9] = system: 786-0 renal
[10] = system: K-562 leukemia
[11] = system: SF-268 CNS
[12] = system: TK-10 renal
[13] = system: OVCAR-4 ovarian
[14] = system: HOP-18 NSCLC
[15] = system: EKVX NSCLC
[16] = system: KM12 colon
[17] = system: SF-295 CNS
[18] = system: SNB-19 CNS
[19] = system: U251 CNS
[20] = system: SF-539 CNS
[21] = system: KM20L2 colon
[22] = system: LXFL 529 NSCLC
[23] = system: SNB-75 CNS
[24] = system: OVCAR-8 ovarian
[25] = system: XF 498 CNS
[26] = system: MOLT-4 leukemia
[27] = system: NCI-H460 lung
[28] = system: IGROV1 ovarian
[29] = system: CAKI-1 renal
[30] = system: MALME-3M melanoma
[31] = system: DMS 114 small cell lung
[32] = system: UO-31 renal
[33] = system: SK-MEL-5 melanoma
[34] = system: NCI-H522 lung
[35] = system: NCI-H23 lung
[36] = system: SK-MEL-2 melanoma
[37] = system: A549 NSCLC
[38] = system: UACC-62 melanoma
[39] = system: M14 melanoma
[40] = system: HT29 colon
[41] = system: HCT-116 colon
[42] = system: HCC-2998 colon
[43] = system: M19-MEL melanoma
[44] = system: SN12C renal
[45] = system: SK-OV-3 ovarian
[46] = system: A498 renal
[47] = system: ACHN renal
[48] = system: SK-MEL-28 melanoma
[49] = system: RXF 393 renal
[50] = system: HOP-62 NSCLC
[51] = system: OVCAR-3 ovarian
[52] = system: UACC-257 melanoma
[53] = system: RPMI-8226 leukemia
[54] = system: OVCAR-5 ovarian
[55] = system: SNB-78 CNS
[56] = system: DMS 273 small cell lung
[57] = system: HOP-92 NSCLC
[58] = system: HL-60(TB) leukemia
[59] = system: SR leukemia

## COc1ccc(/C=C/C(=O)c2sc(-n3nc(-c4ccccc4)cc3-c3ccccc3)nc2C)cc1
[1]
  GI50: > 100 µM
  TGI: > 100 µM
[2]
  GI50: > 100 µM
  TGI: > 100 µM
[3]
  GI50: > 100 µM
  TGI: > 100 µM
[4]
  GI50: > 100 µM
  TGI: > 100 µM
[5]
  TGI: > 100 µM
[6]
  GI50: > 100 µM
  TGI: > 100 µM
[7]
  GI50: > 100 µM
  TGI: > 100 µM
[8]
  GI50: > 100 µM
  TGI: > 100 µM
[9]
  GI50: > 100 µM
  TGI: > 100 µM
[10]
  TGI: > 100 µM
[11]
  GI50: > 100 µM
  TGI: > 100 µM
[12]
  GI50: > 100 µM
  TGI: > 100 µM
[13]
  TGI: > 100 µM
[14]
  GI50: > 100 µM
  TGI: > 100 µM
[15]
  GI50: 51.1 µM
  TGI: > 100 µM
[16]
  TGI: > 100 µM
[17]
  GI50: > 100 µM
  TGI: > 100 µM
[18]
  GI50: > 100 µM
  TGI: > 100 µM
[19]
  TGI: > 100 µM
[20]
  GI50: > 100 µM
  TGI: > 100 µM
[21]
  TGI: > 100 µM
[22]
  GI50: > 100 µM
  TGI: > 100 µM
[23]
  GI50: 56.1 µM
  TGI: > 100 µM
[24]
  GI50: > 100 µM
  TGI: > 100 µM
[25]
  TGI: > 100 µM
[26]
  TGI: > 100 µM
[27]
  GI50: > 100 µM
  TGI: > 100 µM
[28]
  GI50: > 100 µM
  TGI: > 100 µM
[29]
  TGI: > 100 µM
[30]
  GI50: > 100 µM
  TGI: > 100 µM
[31]
  TGI: > 100 µM
[32]
  TGI: > 100 µM
[33]
  TGI: > 100 µM
[34]
  TGI: > 100 µM
[35]
  GI50: > 100 µM
  TGI: > 100 µM
[36]
  GI50: > 100 µM
  TGI: > 100 µM
[37]
  GI50: > 100 µM
  TGI: > 100 µM
[38]
  GI50: > 100 µM
  TGI: > 100 µM
[39]
  GI50: > 100 µM
  TGI: > 100 µM
[40]
  TGI: > 100 µM
[41]
  GI50: > 100 µM
  TGI: > 100 µM
[42]
  GI50: > 100 µM
  TGI: > 100 µM
[43]
  GI50: > 100 µM
  TGI: > 100 µM
[44]
  TGI: > 100 µM
[45]
  GI50: > 100 µM
  TGI: > 100 µM
[46]
  GI50: > 100 µM
  TGI: > 100 µM
[47]
  GI50: > 100 µM
  TGI: > 100 µM
[48]
  GI50: > 100 µM
  TGI: > 100 µM
[49]
  GI50: > 100 µM
  TGI: > 100 µM
[50]
  GI50: > 100 µM
  TGI: > 100 µM
[51]
  TGI: > 100 µM
[52]
  TGI: > 100 µM
[53]
  TGI: > 100 µM

## O=C(Nc1nc2c(ncn2C2OC(CO)C(O)C2O)c(=O)[nH]1)c1ccccc1 (stereo not drawn)
[1]
  TGI: > 100 µM
[2]
  TGI: > 100 µM
[3]
  TGI: > 100 µM
[4]
  TGI: > 100 µM
[5]
  TGI: > 100 µM
[6]
  TGI: > 100 µM
[7]
  TGI: > 100 µM
[8]
  TGI: > 100 µM
[9]
  TGI: > 100 µM
[54]
  TGI: > 100 µM
[10]
  TGI: > 100 µM
[11]
  TGI: > 100 µM
[12]
  TGI: > 100 µM
[13]
  TGI: > 100 µM
[55]
  TGI: > 100 µM
[14]
  TGI: > 100 µM
[15]
  TGI: > 100 µM
[16]
  TGI: > 100 µM
[17]
  TGI: > 100 µM
[56]
  TGI: > 100 µM
[19]
  TGI: > 100 µM
[20]
  TGI: > 100 µM
[21]
  TGI: > 100 µM
[22]
  TGI: > 100 µM
[23]
  TGI: > 100 µM
[24]
  TGI: > 100 µM
[25]
  TGI: > 100 µM
[27]
  TGI: > 100 µM
[28]
  TGI: > 100 µM
[29]
  TGI: > 100 µM
[30]
  TGI: > 100 µM
[32]
  TGI: > 100 µM
[33]
  TGI: > 100 µM
[34]
  TGI: > 100 µM
[35]
  TGI: > 100 µM
[36]
  TGI: > 100 µM
[37]
  TGI: > 100 µM
[38]
  TGI: > 100 µM
[39]
  TGI: > 100 µM
[40]
  TGI: > 100 µM
[57]
  TGI: > 100 µM
[41]
  TGI: > 100 µM
[58]
  TGI: > 100 µM
[43]
  TGI: > 100 µM
[44]
  TGI: > 100 µM
[45]
  TGI: > 100 µM
[59]
  TGI: > 100 µM
[46]
  TGI: > 100 µM
[47]
  TGI: > 100 µM
[48]
  TGI: > 100 µM
[49]
  TGI: > 100 µM
[50]
  TGI: > 100 µM
[51]
  TGI: > 100 µM
[52]
  TGI: > 100 µM
[53]
  TGI: > 100 µM
